# Laboratory results reported in US20060154904A1, “Betulinol derivatives as anti-HIV agents” (Cornell Research Foundation, Inc., priority 2004, published 2006).
# Where two headings read alike, the source gives them in different places.
# Experiments:
# [1] = system: Human T-B hybridoma cell line 174XCEM; experiment: cell viability by trypan blue dye exclusion; format: cell-based; details: for effect on total cell number or cell viability: trypan blue at four days and seven days; for cell toxicity: doses of 0.5, 1 .5, and 2 μg/ml
# Text: Dimethyl sulfoxide (“DMSO”) buffer was used as “no virus” control.
# [2] = system: HIV-1 IIIB isolate; experiment: HIV-1 inhibitory effect, p24 antigen capture ELISA in acutely infected 174XCEM cells; format: cell-based; details: for anti-HIV-1 activity (p24 OD, FIG. 6) / inhibition of HIV infection (FIG. 7): 1 μg/ml; for anti-HIV-1 activity (p24 OD, FIG. 6): 4 days, compared with other betulinol derivatives; for dose-related anti-HIV effect (FIG. 8): doses of 0.5, 1 .5, and 2 μg/ml
# [3] = system: AZT-resistant HIV strain; experiment: anti-HIV activity against AZT-resistant patient isolates in MT-2 cells; format: cell-based
# Text: These isolates were used to infect MT-2 cells in vitro.
# [4] = solubility in DMSO diluted with culture medium, GC against standard curve; format: physicochemical
# Protocol: The residue was dissolved in chloroform analyzed on GC.
# Ethyl ether was then evaporated.
# [5] = tolerability of solubilized drug in mice with prostate cancer cell xenografts; format: in vivo; details: final concentration 22% ethanol and 2×10^−3 mol per liter of betulonic acid
# [6] = system: another HIV-1 isolate; experiment: effect on 174XCEM cells chronically infected with another HIV-1 isolate; format: cell-based; details: single dose 1 μg/ml
# Protocol: Agents were also evaluated for an effect on 174XCEM cells chronically infected with another HIV-1 isolate.
# [7] = system: HIV; details: Sun et al., J. Med. Chem. 41:4648-4657 (1998); cited from earlier work
# [8] = system: cells; details: cited from earlier work
# [9] = solubilization in PBS containing human γ-globulin, human albumin and ethanol; format: physicochemical; details: 1 × 10^−3 mol/L
# [10] = solubility in human serum; format: physicochemical; details: 1.34 mg in 31 μL ethanol and 700 μL human serum
# [11] = culture medium containing 20% DMSO, calculated from amount and volume
compound,measurement,setting,value
C=C(C)[C@@H]1CC[C@]2(CO)CC[C@]3(C)[C@H](CC[C@@H]4[C@@]5(C)CC[C@H](OC(C)=O)C(C)(C)[C@@H]5CC[C@]43C)[C@@H]12 [3-acetoxy betulin],effect on total cell number or cell viability,[1],no effect
same,"anti-HIV-1 activity (p24 OD, FIG. 6)",[2],superior
C=C(C)[C@@H]1CC[C@]2(COC(C)=O)CC[C@]3(C)[C@H](CC[C@@H]4[C@@]5(C)CC[C@H](O)C(C)(C)[C@@H]5CC[C@]43C)[C@@H]12 [28-acetoxy betulin],effect on total cell number or cell viability,[1],no effect
same,"anti-HIV-1 activity (p24 OD, FIG. 6)",[2],superior
same,dose-related anti-HIV-1 activity (FIG. 10),"[2]; doses 0.5, 1, 1.5, and 2 μg/ml",comparable anti-HIV-1 activity
"Cc1cn([C@H]2C[C@H](N=[N+]=[N-])[C@@H](CO)O2)c(=O)[nH]c1=O [AZT, 3′-azido-3′-deoxythymidine, reference compound]",inhibition in the HIV infection,[3]; day 8,ineffective
C=C(C)C1CCC2(C(=O)NCCCCC(NC(=O)C(CCCCNC(=O)C34CCC(C(=C)C)C3[C@@H]3CC[C@H]5[C@]6(C)CCC(=O)C(C)(C)[C@H]6CC[C@]5(C)[C@@]3(C)CC4)NC(=O)OC(C)(C)C)C(=O)O)CC[C@]3(C)[C@H](CC[C@@H]4[C@@]5(C)CCC(=O)C(C)(C)[C@@H]5CC[C@]43C)C12 (stereo partly drawn) [Boc-Dimer],Concentration of drug (mg/mL),[4]; [11],0.6 mg/mL
same,Concentration of drug (mol/L),[4]; [11],0.0005 mol/L
C=C(C)C1CCC2(C(=O)NCCCCC(NC(=O)OC(C)(C)C)C(=O)O)CC[C@]3(C)[C@H](CC[C@@H]4[C@@]5(C)CCC(=O)C(C)(C)[C@@H]5CC[C@]43C)C12 (stereo partly drawn) [Boc-Monomer],Concentration of drug (mg/mL),[4],0.7 mg/mL
same,tolerability,[5],well tolerated
C=C(C)[C@@H]1CC[C@]2(COC(C)=O)CC[C@]3(C)[C@H](CC[C@@H]4[C@@]5(C)CC[C@H](OC(C)=O)C(C)(C)[C@@H]5CC[C@]43C)[C@@H]12 [betulin diacetate],inhibition in chronically infected cells,[6],20%
same,therapeutic index,[7],low therapeutic index
same,cell toxicity,[1],without cell toxicity
same,inhibition of HIV infection (FIG. 7),[2],57%
same,dose-related anti-HIV effect (FIG. 8),[2],Progressive increases in anti-HIV effect
C=C(C)C1CCC2(COC)CCC3(C)C(CCC4C5(C)CCC(OC)C(C)(C)C5CCC43C)C12 (stereo not drawn) [betulin dimethyl ether],effect on total cell number or cell viability,[1],no effect
same,"anti-HIV-1 activity (p24 OD, FIG. 6)",[2],superior
"C=C(C)C1CCC2(CO)CC[C@]3(C)[C@H](CC[C@@H]4[C@@]5(C)CCC(O)C(C)(C)[C@@H]5CC[C@]43C)C12 (stereo partly drawn) [betulinol, lup-20(29)-ene-3β, 28-diol]",inhibition in chronically infected cells,[6],minimal effect
same,inhibition of HIV infection (FIG. 7),[2],no effect
same,dose-related anti-HIV effect (FIG. 9),"[2]; doses 1.3, 1.6, and 2 μg/ml",increasing anti-HIV effect
C=C(C)[C@@H]1CC[C@]2(C=O)CC[C@]3(C)[C@H](CC[C@@H]4[C@@]5(C)CCC(=O)C(C)(C)[C@@H]5CC[C@]43C)[C@@H]12 [betulone aldehyde],inhibition in chronically infected cells,[6],minimal effect
same,cell toxicity,[1],without cell toxicity
same,inhibition of HIV infection (FIG. 7),[2],37%
same,dose-related anti-HIV effect (FIG. 8),[2],Progressive increases in anti-HIV effect
C=C(C)C1CCC2(C(=O)O)CC[C@]3(C)[C@H](CC[C@@H]4[C@@]5(C)CCC(=O)C(C)(C)[C@@H]5CC[C@]43C)C12 (stereo partly drawn) [betulonic acid],inhibition in the HIV infection,[3]; day 5,56%
same,inhibition in the HIV infection,[3]; day 8,44%
same,cytotoxicity,[8],cytotoxic
same,amount of betulonic acid dissolved,"[4]; out of 3 mg, 1% DMSO in culture medium containing 10% FBS, nominal 0.5 mg/mL",0.4 mg
same,Observation,"[9]; γ-globulin in PBS 0 mL, albumin in PBS 2.50 mL, ethanol 280 μL",Complete
same,Observation,"[9]; γ-globulin in PBS 0.32 mL, albumin in PBS 2.85 mL, ethanol 352 μL",Clear
same,Observation,"[9]; γ-globulin in PBS 0.69 mL, albumin in PBS 2.07 mL, ethanol 308 μL",Almost Clear
same,Observation,"[9]; γ-globulin in PBS 1.48 mL, albumin in PBS 0.49 mL, ethanol 220 μL",Cloudy
same,Observation,"[9]; γ-globulin in PBS 1.48 mL, albumin in PBS 1.48 mL, ethanol 330 μL",Little Cloudy
same,Observation,"[9]; γ-globulin in PBS 2.50 mL, albumin in PBS 0 mL, ethanol 280 μL",Suspension
same,Observation,[10],Clear Solution
same,tolerability,[5],well tolerated
